Data set [1] is described as follows: ATHENA clinical study, patients with calcium channel blockers baseline medication. Type of data set: in vivo. From the text: Calcium channel blockers have been used in ATHENA clinical study and at the same rate in the dronedarone group and in the placebo group. About 13 to 20% of the patients had received one of these compounds during the study.
In the ATHENA trial, the concomitant administration of calcium antagonists and dronedarone was done according to the above mentioned instructions, i.e. start with low doses of the calcium antagonist and then increase the dose after ECG verification of good tolerability, if necessary and based on individual patient characteristics.
The relative risk (RR) was estimated using Cox's […] regression model.
The relative risk (RR) is the ratio of the rates of occurrence of a hospitalization or of a death among the patients on dronedarone, relative to the patients on placebo.
The percentage reduction x of a given event (hospitalization, death, cardiovascular death, etc.) is calculated in the following way: […]

Data set [2] is described as follows: 12-lead ECG (PR, QTcF intervals) in dronedarone/verapamil interaction study, Day 14. The settings on record: baseline Day 1, -0.5 h, least square means.
Data set [3] is described as follows: Dronedarone/verapamil pharmacokinetic interaction crossover study, plasma PK on Day 14.
Setting [4] is: 331 patients with calcium channel blockers baseline medication, 122 events in placebo group (307 patients).
The mark [5] stands for this setting: versus placebo, Cox model, calcium channel blockers baseline medication.
Where [6] appears, read: versus placebo, calcium channel blockers baseline medication.
The mark [7] stands for this setting: verapamil plus dronedarone versus verapamil alone.
[8] abbreviates: dronedarone plus verapamil versus dronedarone alone.

The source of these data is patent publication US20120005128A1, “METHODS FOR REDUCING THE RISK OF AN ADVERSE DRONEDARONE / CALCIUM CHANNEL BLOCKERS INTERACTION IN A PATIENT SUFFERING FROM ATRIAL FIBRILATION” (sanofi, priority 2010, published 2012).

Where a name gives a salt, the structure may show the parent alone.

As to `CCCCc1oc2ccc(NS(C)(=O)=O)cc2c1C(=O)c1ccc(OCCCN(CCCC)CCCC)cc1` [dronedarone hydrochloride], the “Number of events, hospitalization for congestive heart failure (CHF)” value in data set [1] (331 patients with calcium channel blockers baseline medication, 23 events in placebo group (307 patients)) is 14. Further, in data set [1] (setting [4]), the “Number of events, cardiovascular hospitalization or death” value amounted to 90 and the “Number of events, death” value is 90. Moreover, in data set [1] (setting [5]), the “Relative risk, cardiovascular hospitalization or death” value is 0.628; the “Relative risk, death” value is 0.628; the “Relative risk, hospitalization for congestive heart failure (CHF)” value turned out to be 0.556. In data set [1] (setting [6]), the “Decrease of CHF” value came to 44%, the “Decrease of cardiovascular hospitalization or death” value stood at 37% and the Decrease of death stood at 37%.

On to `COc1ccc(CCN(C)CCCC(C#N)(c2ccc(OC)c(OC)c2)C(C)C)cc1OC` (stereo not drawn) [VP, verapamil], for which, in data set [2], the “Mean change (Eavr) in PR from baseline” value was 4.2 ms and the “Mean change (Eavr) in QTcF from baseline” value came out at 2.1 ms.

On to `COc1ccc(CCNCCCC(C#N)(c2ccc(OC)c(OC)c2)C(C)C)cc1OC` (stereo not drawn) [NVP, norverapamil], for which, in data set [3] (setting [7]), the “Ratio of geometric means, AUC0-24” value is on record as 1.29 and the “Ratio of geometric means, Cmax” value amounted to 1.31.

For `CCCCc1oc2ccc(NS(C)(=O)=O)cc2c1C(=O)c1ccc(OCCCN(CCCC)CCCC)cc1` [Dronedarone, 2-n-Butyl-3-[4-(3-di-n-butylaminopropoxy)benzoyl]-5-methylsulphonamidobenzofuran], the “Risk of hypotension, bradycardia and heart failure” value in data set [1] (patients using both dronedarone and calcium antagonists) was “no increase of the risk of hypotension, bradycardia and heart failure”. Also, in data set [2], the “Mean change (Eavr) in PR from baseline” value amounted to 9.7 ms and the “Mean change (Eavr) in QTcF from baseline” value was determined as 22.1 ms. Besides, in data set [3] (setting [8]), the “Ratio of geometric means, AUC0-12” value is reported as 1.48 and the “Ratio of geometric means, Cmax” value came to 1.42.
